Legend:
ALDH1L1 [1] = target: T1, ALDH1L1 (Rattus norvegicus, UniProt P28037); assay: Wavelength scans to monitor DEAB oxidation; type: biochemical; settings: DEAB as substrate of ALDH1L1
T1 sequence (P28037 417-902 limits assumed): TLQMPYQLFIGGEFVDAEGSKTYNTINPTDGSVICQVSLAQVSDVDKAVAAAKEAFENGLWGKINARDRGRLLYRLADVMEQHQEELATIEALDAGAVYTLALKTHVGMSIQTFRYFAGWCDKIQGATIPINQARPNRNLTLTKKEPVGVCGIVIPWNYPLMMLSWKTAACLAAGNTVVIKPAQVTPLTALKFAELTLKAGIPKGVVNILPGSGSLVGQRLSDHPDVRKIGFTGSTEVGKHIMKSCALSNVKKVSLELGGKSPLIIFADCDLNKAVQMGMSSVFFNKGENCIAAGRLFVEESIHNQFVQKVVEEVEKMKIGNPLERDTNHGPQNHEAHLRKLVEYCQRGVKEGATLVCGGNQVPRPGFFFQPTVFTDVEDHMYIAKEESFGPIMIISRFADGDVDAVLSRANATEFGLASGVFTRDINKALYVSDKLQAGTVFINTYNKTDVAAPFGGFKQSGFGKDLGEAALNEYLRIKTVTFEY

ALDH5A1 [2] = target: T2, ALDH5A1 (Homo sapiens, UniProt P51649); assay: Wavelength scans to monitor DEAB oxidation; type: biochemical; settings: DEAB as substrate of ALDH5A1
T2 sequence (P51649 48-535): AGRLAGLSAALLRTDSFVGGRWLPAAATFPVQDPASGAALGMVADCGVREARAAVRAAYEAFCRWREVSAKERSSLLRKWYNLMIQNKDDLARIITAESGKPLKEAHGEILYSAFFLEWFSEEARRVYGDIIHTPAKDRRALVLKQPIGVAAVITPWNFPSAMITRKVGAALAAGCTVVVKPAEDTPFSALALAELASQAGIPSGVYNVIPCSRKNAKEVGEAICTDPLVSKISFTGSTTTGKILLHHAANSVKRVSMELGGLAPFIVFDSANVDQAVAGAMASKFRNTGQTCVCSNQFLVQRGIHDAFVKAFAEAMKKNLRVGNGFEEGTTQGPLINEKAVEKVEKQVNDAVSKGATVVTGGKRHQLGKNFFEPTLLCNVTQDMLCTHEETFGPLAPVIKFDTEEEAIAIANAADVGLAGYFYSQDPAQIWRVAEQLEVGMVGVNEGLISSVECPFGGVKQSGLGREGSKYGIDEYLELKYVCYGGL

ALDH4A1 [3] = target: T3, ALDH4A1 (Homo sapiens, UniProt P30038); assay: DEAB inhibition and IC50 determination
T3 sequence (P30038 25-563): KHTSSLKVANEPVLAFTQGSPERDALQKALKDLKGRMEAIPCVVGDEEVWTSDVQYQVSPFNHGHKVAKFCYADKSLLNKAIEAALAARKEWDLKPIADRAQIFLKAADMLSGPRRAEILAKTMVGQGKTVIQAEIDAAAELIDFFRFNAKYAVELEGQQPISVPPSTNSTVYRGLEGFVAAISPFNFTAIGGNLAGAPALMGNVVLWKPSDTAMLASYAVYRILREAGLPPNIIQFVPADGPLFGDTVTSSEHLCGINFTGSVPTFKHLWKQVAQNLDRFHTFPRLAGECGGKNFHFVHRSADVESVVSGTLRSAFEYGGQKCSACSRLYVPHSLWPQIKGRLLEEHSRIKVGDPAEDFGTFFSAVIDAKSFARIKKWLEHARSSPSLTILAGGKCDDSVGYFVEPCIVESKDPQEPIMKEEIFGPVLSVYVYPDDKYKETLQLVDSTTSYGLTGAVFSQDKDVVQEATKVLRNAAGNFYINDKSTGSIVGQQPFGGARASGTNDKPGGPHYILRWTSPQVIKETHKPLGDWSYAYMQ

ALDH1A2 [4] = target: T4, ALDH1A2 (Homo sapiens, UniProt O94788); assay: Q-TOF mass spectrometry of enzyme modification by DEAB; type: binding; settings: 5.0 μM ALDH1A2, 10 μM DEAB, without NAD+, 1 h
T4 sequence (O94788 1-518): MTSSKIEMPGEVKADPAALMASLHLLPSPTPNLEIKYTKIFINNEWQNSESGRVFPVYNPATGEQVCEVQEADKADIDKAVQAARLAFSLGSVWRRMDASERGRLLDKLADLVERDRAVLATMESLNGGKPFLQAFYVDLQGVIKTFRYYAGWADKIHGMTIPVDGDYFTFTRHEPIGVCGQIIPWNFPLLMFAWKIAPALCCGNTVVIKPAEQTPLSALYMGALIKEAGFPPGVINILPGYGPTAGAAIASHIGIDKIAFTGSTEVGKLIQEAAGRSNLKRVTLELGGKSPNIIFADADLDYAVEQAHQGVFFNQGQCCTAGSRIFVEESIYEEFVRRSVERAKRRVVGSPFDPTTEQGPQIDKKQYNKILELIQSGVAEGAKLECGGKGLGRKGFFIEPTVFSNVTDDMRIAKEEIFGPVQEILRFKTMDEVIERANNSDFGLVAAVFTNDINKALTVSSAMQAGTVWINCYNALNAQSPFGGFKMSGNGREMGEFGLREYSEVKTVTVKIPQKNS

ALDH4A1 [5] = target: T3, ALDH4A1; assay: Wavelength scans to monitor DEAB oxidation; type: biochemical; settings: DEAB as substrate of ALDH4A1
ALDH3A1 [6] = target: T5, ALDH3A1 (Homo sapiens, UniProt P30838); assay: Wavelength scans to monitor DEAB oxidation; type: biochemical; settings: DEAB as substrate of ALDH3A1
T5 sequence (P30838 1-453): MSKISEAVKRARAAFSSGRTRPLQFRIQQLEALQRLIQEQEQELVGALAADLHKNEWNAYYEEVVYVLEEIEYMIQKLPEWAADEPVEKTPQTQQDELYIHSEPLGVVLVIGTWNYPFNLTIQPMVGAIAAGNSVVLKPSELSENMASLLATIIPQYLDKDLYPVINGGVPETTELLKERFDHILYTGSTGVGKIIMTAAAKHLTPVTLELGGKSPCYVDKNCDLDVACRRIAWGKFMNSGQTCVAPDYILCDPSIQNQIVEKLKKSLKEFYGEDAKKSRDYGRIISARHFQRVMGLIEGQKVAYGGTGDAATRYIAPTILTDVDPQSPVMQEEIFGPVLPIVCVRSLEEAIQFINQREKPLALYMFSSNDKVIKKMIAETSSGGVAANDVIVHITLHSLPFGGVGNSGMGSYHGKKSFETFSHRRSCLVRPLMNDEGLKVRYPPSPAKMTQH

ALDH3A1 [7] = target: T5, ALDH3A1; assay: Enzyme kinetics with DEAB as a substrate; settings: ALDH3A1 oxidation of the substrate
ALDH1A2 [8] = target: T4, ALDH1A2; assay: DEAB inhibition and IC50 determination; type: biochemical
ALDH1A2 [9] = target: T4, ALDH1A2; assay: Kinetics of irreversible; type: biochemical
ALDH1A3 [10] = target: T6, ALDH1A3 (Homo sapiens, UniProt P47895); assay: DEAB inhibition and IC50 determination; type: biochemical
T6 sequence (P47895 1-512): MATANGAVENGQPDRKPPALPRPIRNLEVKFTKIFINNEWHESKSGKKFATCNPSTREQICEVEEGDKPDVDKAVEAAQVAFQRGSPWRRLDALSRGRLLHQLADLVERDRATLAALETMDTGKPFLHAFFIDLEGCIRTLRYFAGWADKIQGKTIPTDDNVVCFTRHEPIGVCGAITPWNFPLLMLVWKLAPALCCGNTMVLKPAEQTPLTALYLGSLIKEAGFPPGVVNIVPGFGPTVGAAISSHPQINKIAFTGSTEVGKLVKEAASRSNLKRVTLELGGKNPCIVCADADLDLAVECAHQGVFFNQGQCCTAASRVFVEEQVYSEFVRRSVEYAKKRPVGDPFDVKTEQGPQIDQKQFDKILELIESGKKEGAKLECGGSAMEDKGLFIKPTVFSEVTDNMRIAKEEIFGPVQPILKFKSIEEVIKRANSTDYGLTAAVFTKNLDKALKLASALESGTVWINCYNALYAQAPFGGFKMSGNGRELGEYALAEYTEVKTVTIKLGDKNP

ALDH1B1 [11] = target: T7, ALDH1B1 (Homo sapiens, UniProt P30837); assay: DEAB inhibition and IC50 determination; type: biochemical
T7 sequence (P30837 18-517): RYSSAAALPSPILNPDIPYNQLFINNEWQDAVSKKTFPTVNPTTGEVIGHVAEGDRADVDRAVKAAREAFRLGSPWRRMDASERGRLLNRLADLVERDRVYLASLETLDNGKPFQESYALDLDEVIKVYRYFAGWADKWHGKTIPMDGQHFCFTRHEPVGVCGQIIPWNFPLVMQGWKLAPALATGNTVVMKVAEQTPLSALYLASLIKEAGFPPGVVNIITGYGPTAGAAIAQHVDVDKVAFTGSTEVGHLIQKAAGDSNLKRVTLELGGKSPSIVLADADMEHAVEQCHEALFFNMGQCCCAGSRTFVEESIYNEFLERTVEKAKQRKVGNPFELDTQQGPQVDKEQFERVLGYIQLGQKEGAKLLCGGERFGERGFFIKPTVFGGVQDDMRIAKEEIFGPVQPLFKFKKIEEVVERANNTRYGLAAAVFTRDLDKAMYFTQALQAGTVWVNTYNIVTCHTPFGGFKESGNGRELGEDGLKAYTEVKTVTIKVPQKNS

ALDH1A2 [12] = target: T4, ALDH1A2; assay: Effect of dialysis on DEAB-induced inhibition; type: biochemical
ALDH1A3 [13] = target: T6, ALDH1A3; assay: Wavelength scans to monitor DEAB oxidation; type: biochemical; settings: DEAB as substrate of ALDH1A3
ALDH1L1 [14] = target: T1, ALDH1L1; assay: DEAB inhibition and IC50 determination
ALDH5A1 [15] = target: T2, ALDH5A1; assay: DEAB inhibition and IC50 determination
ALDH1A2 [16] = target: T4, ALDH1A2; assay: Wavelength scans to monitor DEAB oxidation; type: biochemical; settings: DEAB as substrate of ALDH1A2
ALDH1B1 [17] = target: T7, ALDH1B1; assay: Wavelength scans to monitor DEAB oxidation; type: biochemical; settings: DEAB as substrate of ALDH1B1

CCN(CC)c1ccc(C=O)cc1 [DEAB]
Substrate (ALDH1L1 [1]): No | Substrate (ALDH5A1 [2]): Yes (slow) | IC50 (ALDH4A1 [3]): > 20 µM | fraction of enzyme with DEAB bound (ALDH1A2 [4]): approximately one-third | Substrate (ALDH4A1 [5]): No | Substrate (ALDH3A1 [6]): Yes | Km (ALDH3A1 [7]): 5.6 ± 0.7 µM | IC50 (ALDH1A2 [8]): 1.2 ± 0.1 µM | Mode of inhibition (ALDH1A2 [9]): Covalent inhibitor | IC50 (ALDH1A3 [10]): 3 ± 0.3 µM | IC50 (ALDH1B1 [11]): 1.2 ± 0.1 µM | activity at 100 µM (ALDH1A2 [12]; 0.5 h, pH 7.5, read-out: activity recovered after dialysis): 75% | recovery of enzymatic activity after dialysis (ALDH1A2 [12]; ALDH1A2, pre-incubated with DEAB and NAD+, dialyzed 4 h): neither the ALDH2 nor the ALDH1A2 samples regained enzymatic activity | Substrate (ALDH1A3 [13]): Yes (slow) | IC50 (ALDH1L1 [14]): > 20 µM | IC50 (ALDH5A1 [15]): 13 ± 0.5 µM | Substrate (ALDH1A2 [16]): No | Substrate (ALDH1B1 [17]): Yes (slow)
